According to the supplement of paper PMC8960247:
Counter-ions that a name gives are not always drawn. ± gives the standard error.

What was measured:
621-102 (TSC2-deficient) = test: relative viability vs DMSO; higher = less cytotoxic; details: serum: 10% FBS, 72 h
621-103 (TSC2-rescued) = test: as above; details: serum: 10% FBS, 72 h
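Also: immortalized renal angiomyolipoma cells stably carrying empty vector or TSC2, dosed in 384-well plates in DMEM, viability normalized to vehicle-treated wells within each plate.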

| Compound | relative viability (621-102 (TSC2-deficient); 0.0001 µM) [%] | relative viability (621-102 (TSC2-deficient); 0.001 µM) [%] | relative viability (621-102 (TSC2-deficient); 0.01 µM) [%] | relative viability (621-102 (TSC2-deficient); 0.1 µM) [%] | relative viability (621-102 (TSC2-deficient); 1 µM) [%] | relative viability (621-102 (TSC2-deficient); 10 µM) [%] | relative viability (621-103 (TSC2-rescued); 0.0001 µM) [%] | relative viability (621-103 (TSC2-rescued); 0.001 µM) [%] | relative viability (621-103 (TSC2-rescued); 0.01 µM) [%] | relative viability (621-103 (TSC2-rescued); 0.1 µM) [%] | relative viability (621-103 (TSC2-rescued); 1 µM) [%] | relative viability (621-103 (TSC2-rescued); 10 µM) [%] |
| --- | --- | --- | --- | --- | --- | --- | --- | --- | --- | --- | --- | --- |
| CCN(CCO)CCCOc1ccc2c(Nc3cc(CC(=O)Nc4cccc(F)c4)[nH]n3)ncnc2c1 [AZD1152-HQPA (Barasertib)] | 114 ± 6.7 | 111 ± 1.4 | 107 ± 2 | 79.4 ± 1.5 | 68.2 ± 0.79 | 73 ± 1.6 | 97.225 ± 0.04 | 98.1 ± 0.35 | 96.9 ± 0.98 | 91.9 ± 3.1 | 84.56 ± 0.56 | 85.5 ± 2.6 |
| Cc1cc(Nc2nc(N[C@@H](C)c3ncc(F)cn3)ncc2Cl)[nH]n1 [AZD1480] | 104 ± 2.1 | 101.7 ± 0.92 | 104 ± 1.7 | 100.8 ± 0.59 | 103 ± 3.8 | 87.7 ± 1.2 | 97.89 ± 0.31 | 89.6 ± 1.1 | 86.7 ± 3.9 | 92.2 ± 2.8 | 89.4 ± 2.6 | 53.6 ± 1.4 |
| O=C(c1cc(Cc2n[nH]c(=O)c3ccccc23)ccc1F)N1CCN(C(=O)C2CC2)CC1 [AZD2281 (Olaparib)] | 120 ± 2.1 | 129 ± 5.5 | 125 ± 5.6 | 120 ± 2.8 | 114.2 ± 0.69 | 81.75 ± 0.48 | 104 ± 1.5 | 103 ± 1.7 | 104.6 ± 0.91 | 99.6 ± 3.1 | 104 ± 1.5 | 98.4 ± 4.5 |
| Cc1ncc(-c2ccnc(Nc3ccc(S(C)(=O)=O)cc3)n2)n1C(C)C [AZD5438] | 103 ± 7.6 | 101 ± 1.4 | 95.4 ± 1.6 | 99.55 ± 0.14 | 88.1 ± 1.8 | 11.69 ± 0.054 | 110.9 ± 0.22 | 105.8 ± 0.22 | 98.7 ± 4.7 | 108 ± 1.6 | 89.4 ± 2.3 | 27.7 ± 0.92 |
| Cn1cnc2c(F)c(Nc3ccc(Br)cc3Cl)c(C(=O)NOCCO)cc21 [AZD6244 (Selumetinib)] | 84 ± 9.2 | 89.89 ± 0.22 | 96.8 ± 1.1 | 98.9 ± 5.4 | 84.7 ± 1.2 | 88.21 ± 0.5 | 101.6 ± 0.39 | 100.1 ± 0.89 | 105.2 ± 1 | 106 ± 1.1 | 104 ± 2.8 | 89 ± 2.5 |
| COc1ccc(-c2ccc3c(N4CCOC[C@@H]4C)nc(N4CCOC[C@@H]4C)nc3n2)cc1CO [AZD8055] | 80 ± 3.1 | 86.2 ± 2.7 | 66.51 ± 0.58 | 39.8 ± 0.67 | 21.4 ± 2.2 | 19 ± 0.54 | 90.4 ± 3.3 | 81.1 ± 4.3 | 69 ± 0.95 | 48.4 ± 0.71 | 34.6 ± 0.72 | 34.3 ± 1.4 |
| Cc1cc(C(=O)NOCCO)c(Nc2ccc(I)cc2F)n(C)c1=O [AZD8330] | 103 ± 1.4 | 102 ± 2.7 | 99.3 ± 1.3 | 96.05 ± 0.59 | 65.9 ± 1.7 | 58.5 ± 0.66 | 101.1 ± 0.99 | 92.9 ± 1.4 | 93.3 ± 1.4 | 93.1 ± 2.1 | 76.3 ± 0.95 | 68.4 ± 0.99 |
| CNC(=O)CN1CCC(Oc2cc3c(Nc4cccc(Cl)c4F)ncnc3cc2OC)CC1 [AZD8931] | 106 ± 2.5 | 104 ± 3 | 98.4 ± 2 | 96.61 ± 0.73 | 99.6 ± 2.1 | 93.4 ± 4.9 | 102 ± 1.5 | 99.7 ± 2.3 | 101 ± 2.6 | 100.3 ± 0.18 | 99 ± 1.7 | 83.2 ± 3.3 |
| CC(=O)O[C@H]1CC[C@@]2(C)C(=CC[C@@H]3[C@@H]2CC[C@]2(C)C(c4cccnc4)=CC[C@@H]32)C1 [Abiraterone Acetate (CB7630)] | 103 ± 1.5 | 108 ± 7 | 102 ± 0.7 | 97.3 ± 2.7 | 103 ± 1.2 | 94.6 ± 2.4 | 106 ± 5.8 | 104 ± 3.1 | 111 ± 2.3 | 111 ± 5.3 | 105 ± 2 | 102 ± 3.2 |
| CC(=O)Nc1ccccc1 [Acetanilide] | 87.9 ± 1.9 | 111 ± 0.29 | 109 ± 2.3 | 92 ± 3 | 113 ± 3.1 | 104 ± 1.7 | 104 ± 1.9 | 102 ± 4.6 | 106.2 ± 0.32 | 101 ± 4.2 | 103 ± 2.6 | 91.3 ± 1.3 |
| Nc1[nH]cnc2ncnc1-2 [Adenine HCl] | 93.9 ± 2 | 103 ± 0.93 | 97.03 ± 0.37 | 97.386 ± 0.086 | 96.5 ± 6.5 | 110.8 ± 1.1 | 95.5 ± 2.2 | 96.77 ± 0.35 | 92.9 ± 4.8 | 102.9 ± 0.83 | 96.7 ± 2.2 | 120 ± 2.1 |
| Nc1[nH]cnc2ncnc1-2 [Adenine] | 98 ± 4 | 96.5 ± 2.6 | 100 ± 3 | 97.9 ± 2.6 | 101 ± 2.1 | 112.7 ± 0.18 | 101 ± 3.9 | 98.5 ± 4.1 | 101 ± 1.6 | 97.3 ± 1.1 | 104.9 ± 0.9 | 117 ± 1.5 |
| COc1cccc2c1C(=O)c1c(O)c3c(c(O)c1C2=O)C[C@@](O)(C(=O)CO)C[C@@H]3O[C@H]1C[C@H](N)[C@H](O)[C@H](C)O1 [Adriamycin] | 102 ± 2 | 93.5 ± 5.5 | 71.1 ± 1.7 | 65.1 ± 2.7 | 17.4 ± 2.1 | 5.59 ± 0.56 | 102.4 ± 0.79 | 103 ± 1.9 | 87.9 ± 3.1 | 60.3 ± 1.4 | 13.01 ± 0.075 | 12 ± 0.24 |
| NCCCC(O)(P(=O)(O)O)P(=O)(O)O [Alendronate Sodium] | 99.4 ± 1.2 | 103 ± 1.3 | 103 ± 2.7 | 99.1 ± 5.1 | 99 ± 3.1 | 104.6 ± 0.43 | 98.7 ± 3.1 | 102 ± 1.5 | 101 ± 4.5 | 105.54 ± 0.079 | 104 ± 3.5 | 105 ± 2.9 |
